Experiments:
Format in all cases: biochemical
CYP98A3 [1] = biological target: T1, CYP98A3 (Arabidopsis thaliana, UniProt O22203); assay: HPLC and LC-MS of caffeoyl quinate formed by plant microsomes; settings: 100 μM substrate; 0.2 mM NADPH; pH 7.0; 28 °C; microsomes from N. benthamiana expressing the enzyme
T1 construct: full-length, untagged; transient expression in Nicotiana benthamiana leaves with TBSV P19, leaf microsomes (also yeast WAT11 microsomes)
T1 sequence (O22203 1-508): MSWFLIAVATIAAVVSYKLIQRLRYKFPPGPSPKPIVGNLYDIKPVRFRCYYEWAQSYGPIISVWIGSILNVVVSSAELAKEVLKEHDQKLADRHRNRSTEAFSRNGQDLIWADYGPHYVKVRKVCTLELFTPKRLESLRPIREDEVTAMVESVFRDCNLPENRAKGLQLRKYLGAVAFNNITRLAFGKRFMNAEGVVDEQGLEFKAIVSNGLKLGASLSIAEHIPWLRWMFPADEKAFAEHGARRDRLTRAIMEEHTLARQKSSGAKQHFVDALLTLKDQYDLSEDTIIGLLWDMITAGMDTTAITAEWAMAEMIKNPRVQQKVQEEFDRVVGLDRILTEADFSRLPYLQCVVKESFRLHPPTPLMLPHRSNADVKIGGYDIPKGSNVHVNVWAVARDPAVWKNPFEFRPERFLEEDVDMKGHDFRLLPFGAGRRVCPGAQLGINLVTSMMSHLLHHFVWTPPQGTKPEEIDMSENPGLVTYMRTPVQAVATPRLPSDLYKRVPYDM

CYP98A22 [2] = biological target: T2, CYP98A22 (Ruta graveolens, UniProt H9LJF9); assay: LC-MS of caffeoyl quinate formed by plant microsomes; settings: 0.2 mM NADPH; 20 mM phosphate pH 7.0; 28 °C; 30 min; microsomes from N. benthamiana expressing the enzyme
T2 construct: full-length, 508 residues, untagged; transient expression in Nicotiana benthamiana leaves with TBSV P19, leaf microsomes
Excerpt: LC-MS of caffeoyl quinate formed by plant microsomes on CYP98A22

CYP98A3 [3] = biological target: T1, CYP98A3; assay: HPLC and LC-MS of caffeoyl shikimate formed by plant microsomes; settings: 100 μM substrate; 0.2 mM NADPH; pH 7.0; 28 °C; microsomes from N. benthamiana expressing the enzyme
CYP98A22 [4] = biological target: T2, CYP98A22; assay: LC-MS of caffeoyl shikimate formed by plant microsomes; settings: 0.2 mM NADPH; 20 mM phosphate pH 7.0; 28 °C; 30 min; microsomes from N. benthamiana expressing the enzyme
Excerpt: LC-MS of caffeoyl shikimate formed by plant microsomes on CYP98A22

T2 sequence (H9LJF9 entry or part of it): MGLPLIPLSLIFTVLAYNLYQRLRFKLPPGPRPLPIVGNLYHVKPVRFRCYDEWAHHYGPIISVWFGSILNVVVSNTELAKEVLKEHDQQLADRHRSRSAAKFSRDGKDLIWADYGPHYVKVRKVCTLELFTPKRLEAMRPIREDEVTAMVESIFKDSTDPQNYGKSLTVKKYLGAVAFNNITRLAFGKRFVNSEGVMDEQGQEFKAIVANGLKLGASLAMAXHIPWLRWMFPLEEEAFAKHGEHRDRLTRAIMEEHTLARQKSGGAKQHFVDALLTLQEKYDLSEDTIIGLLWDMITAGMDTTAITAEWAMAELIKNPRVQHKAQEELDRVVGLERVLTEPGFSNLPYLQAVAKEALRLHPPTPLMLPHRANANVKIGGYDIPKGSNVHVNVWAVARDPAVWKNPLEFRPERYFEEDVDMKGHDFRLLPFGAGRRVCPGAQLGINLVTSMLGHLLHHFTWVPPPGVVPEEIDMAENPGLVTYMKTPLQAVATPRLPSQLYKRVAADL

Row | Km (CYP98A22 [2]) [µM] | Km (CYP98A22 [4]) [µM] | Compound | HPLC and LC-MS of caffeoyl quinate formed by plant microsomes (CYP98A3 [1]) | HPLC and LC-MS of caffeoyl shikimate formed by plant microsomes (CYP98A3 [3])
1 | 7 ± 5 |  | O=C(/C=C/c1ccc(O)cc1)O[C@@H]1C[C@](O)(C(=O)O)C[C@@H](O)[C@H]1O [p-coumaroyl quinate] | both p-coumaroyl quinate and p-coumaroyl shikimate were hydroxylated to their caffeic counterparts | 
2 |  | 24 ± 7 | O=C(/C=C/c1ccc(O)cc1)O[C@@H]1CC(C(=O)O)=C[C@@H](O)[C@H]1O [p-coumaroyl shikimate] |  | both p-coumaroyl quinate and p-coumaroyl shikimate were hydroxylated to their caffeic counterparts
